Measurements reported in ChEMBL document CHEMBL4428097, “Gallic acid induces apoptosis in EGFR-mutant non-small cell lung cancers by accelerating EGFR turnover” (Bioorg Med Chem Lett, 2016).
Activity calls are given as the source filed them. The calls are words filed in the database; no cut-off is given here.

Columns and labels:
A549 [1] = assay: Decrease in EGFR level in human A549 cells harboring wild-type EGFR at 30 and 60 uM measured after 24 hrs by immunoblotting analysis; type: functional, cell-based
A549 [2] = assay: Induction of apoptosis in human A549 cells harboring wild-type EGFR assessed as cell death at 30 and 60 uM measured after 24 hrs by Annexin-V/PI staining based analysis; type: functional
NCI-H1650 [3] = assay: Inhibition of EGFR mutant-mediated AKT phosphorylation in human NCI-H1650 cells harboring EGFR-mutant at 30 and 60 uM measured after 24 hrs by immunoblotting analysis; type: cell-based
NCI-H1975 [4] = assay: Induction of apoptosis in human NCI-H1975 harboring EGFR-mutant cells assessed as cell death measured after 24 hrs by Annexin-V/PI staining based analysis; type: functional
NCI-H460 [5] = assay: Increase in cleaved caspase3 level in human NCI-H460 cells harboring wild-type EGFR at 30 and 60 uM by immunoblotting analysis; type: functional, cell-based
PC-9 [6] = assay: Increase in cleaved caspase3 level in human gefitinib-resistant PC9 cells harboring EGFR T790M mutant at 30 and 60 uM by immunoblotting analysis; type: functional, cell-based
NCI-H1975 [7] = assay: Induction of EGFR turnover in human NCI-H1975 cells harboring EGFR-mutant assessed as receptor half life […] at 60 uM in presence of cycloheximide by immunoblotting analysis; type: functional, cell-based
NCI-H1975 [8] = assay: Antiproliferative activity against human NCI-H1975 cells harboring EGFR-mutant assessed as cell viability measured after 24 hrs; type: functional, cell-based
NCI-H1975 [9] = assay: Induction of EGFR turnover in human NCI-H1975 cells harboring EGFR-mutant at 60 uM measured after 24 hrs in presence of proteosome inhibitor bortezomib by immunoblotting analysis; type: functional, cell-based
PC-9 [10] = assay: Decrease in EGFR level in human gefitinib-resistant PC9 cells harboring EGFR T790M mutant at 30 and 60 uM measured after 24 hrs by immunoblotting analysis; type: functional, cell-based
NCI-H1650 [11] = assay: Inhibition of EGFR mutant-mediated ERK phosphorylation in human NCI-H1650 cells harboring EGFR-mutant measured after 24 hrs by immunoblotting analysis; type: cell-based
[12] = target: Epidermal growth factor receptor (Homo sapiens) (UniProt P00533); assay: Inhibition of EGFR-mediated AKT phosphorylation in human NCI-H460 cells harboring wild-type EGFR at 30 and 60 uM measured after 24 hrs by immunoblotting analysis; type: cell-based
NCI-H460 [13] = assay: Increase in PARP level in human NCI-H460 cells harboring wild-type EGFR at 30 and 60 uM by immunoblotting analysis; type: functional, cell-based
A549 [14] = assay: Increase in cleaved caspase3 level in human A549 cells harboring wild-type EGFR at 30 and 60 uM by immunoblotting analysis; type: functional, cell-based
NCI-H1975 [15] = assay: Effect on EGFR mRNA levels in human NCI-H1975 cells harboring EGFR-mutant at 30 uM by quantitative RT-PCR method; type: functional, cell-based
NCI-H1650 [16] = assay: Induction of apoptosis in human NCI-H1650 cells harboring EGFR-mutant assessed as cell death measured after 24 hrs by Annexin-V/PI staining based analysis; type: functional
NCI-H1975 [17] = assay: Effect on ROS level in human NCI-H1975 cells harboring EGFR-mutant at 60 uM; type: functional, cell-based
[18] = target: Epidermal growth factor receptor (Homo sapiens) (UniProt P00533); assay: Inhibition of EGFR-mediated ERK phosphorylation in human NCI-H460 cells harboring wild-type EGFR at 30 and 60 uM measured after 24 hrs by immunoblotting analysis; type: cell-based
NCI-H1975 [19] = assay: Inhibition of EGFR mutant-mediated ERK phosphorylation in human NCI-H1975 cells harboring EGFR-mutant at 30 and 60 uM measured after 24 hrs by immunoblotting analysis; type: cell-based
PC-9 [20] = assay: Increase in cleaved caspase3 level in human erlotinib-resistant PC9 cells harboring EGFR T790M mutant at 30 and 60 uM by immunoblotting analysis; type: functional, cell-based
PC-9 [21] = assay: Increase in PARP level in human gefitinib-resistant PC9 cells harboring EGFR T790M mutant at 30 and 60 uM by immunoblotting analysis; type: functional, cell-based
NCI-H1650 [22] = assay: Decrease in EGFR level in human NCI-H1650 cells harboring EGFR-mutant at 30 and 60 uM by […]; type: functional, cell-based
NCI-H460 [23] = assay: Induction of apoptosis in human NCI-H460 cells harboring wild-type EGFR assessed as cell death at 30 and 60 uM measured after 24 hrs by Annexin-V/PI staining based analysis; type: functional
NCI-H1975 [24] = assay: Increase in PARP level in human NCI-H1975 cells harboring EGFR-mutant at 30 and 60 uM by immunoblotting analysis; type: functional, cell-based
NCI-H1975 [25] = assay: Inhibition of EGFR mutant-mediated AKT phosphorylation in human NCI-H1975 cells harboring EGFR-mutant at 30 and 60 uM measured after 24 hrs by immunoblotting analysis; type: cell-based
PC-9 [26] = assay: Decrease in EGFR level in human erlotinib-resistant PC9 cells harboring EGFR T790M mutant at 30 and 60 uM measured after 24 hrs by immunoblotting analysis; type: functional, cell-based
[27] = target: Epidermal growth factor receptor (Homo sapiens) (UniProt P00533); assay: Inhibition of EGFR-mediated AKT phosphorylation in human A549 cells harboring wild-type EGFR at 30 and 60 uM measured after 24 hrs by immunoblotting analysis; type: cell-based
NCI-H1650 [28] = assay: Increase in cleaved caspase3 level in human NCI-H1650 cells harboring EGFR-mutant at 30 and 60 uM by immunoblotting analysis; type: functional, cell-based
NCI-H1975 [29] = assay: Decrease in EGFR level in human NCI-H1975 cells harboring EGFR-mutant measured after 24 hrs by immunoblotting analysis; type: functional, cell-based
NCI-H460 [30] = assay: Decrease in EGFR level in human NCI-H460 cells harboring wild-type EGFR at 30 and 60 uM measured after 24 hrs by immunoblotting analysis; type: functional, cell-based
PC-9 [31] = assay: Antiproliferative activity against human erlotinib-resistant PC9 cells harboring EGFR T790M mutant assessed as cell viability measured after 24 hrs; type: functional, cell-based
[32] = target: Epidermal growth factor receptor (Homo sapiens) (UniProt P00533); assay: Inhibition of EGFR-mediated ERK phosphorylation in human A549 cells harboring wild-type EGFR at 30 and 60 uM measured after 24 hrs by immunoblotting analysis; type: cell-based
A549 [33] = assay: Increase in PARP level in human A549 cells harboring wild-type EGFR at 30 and 60 uM by immunoblotting analysis; type: functional, cell-based
A549 [34] = assay: Antiproliferative activity against human A549 cells harboring wild-type EGFR assessed as cell viability at 30 and 60 uM measured after 24 hrs; type: functional, cell-based
PC-9 [35] = assay: Induction of apoptosis in human erlotinib-resistant PC9 cells harboring EGFR T790M mutant assessed as cell death at 30 and 60 uM measured after 24 hrs by Annexin-V/PI staining based analysis; type: functional
PC-9 [36] = assay: Increase in PARP level in human erlotinib-resistant PC9 cells harboring EGFR T790M mutant at 30 and 60 uM by immunoblotting analysis; type: functional, cell-based
PC-9 [37] = assay: Antiproliferative activity against human gefitinib-resistant PC9 cells harboring EGFR T790M mutant assessed as cell viability measured after 24 hrs; type: functional, cell-based
NCI-H1975 [38] = assay: Induction of apoptosis in human NCI-H1975 cells harboring EGFR-mutant assessed as cell death at 60 uM in presence of NAC; type: functional, cell-based
NCI-H1975 [39] = assay: Increase in cleaved caspase3 level in human NCI-H1975 cells harboring EGFR-mutant at 30 and 60 uM by immunoblotting analysis; type: functional, cell-based
PC-9 [40] = assay: Induction of apoptosis in human gefitinib-resistant PC9 cells harboring EGFR T790M mutant assessed as cell death at 30 and 60 uM measured after 24 hrs by Annexin-V/PI staining based analysis; type: functional
NCI-H1650 [41] = assay: Antiproliferative activity against human NCI-H1650 cells harboring EGFR-mutant assessed as cell viability measured after 24 hrs; type: functional, cell-based
NCI-H1650 [42] = assay: Effect on ROS level in human NCI-H1650 cells harboring EGFR-mutant at 60 uM; type: functional, cell-based
NCI-H1650 [43] = assay: Increase in PARP level in human NCI-H1650 cells harboring EGFR-mutant at 30 and 60 uM by immunoblotting analysis; type: functional, cell-based
NCI-H460 [44] = assay: Antiproliferative activity against human NCI-H460 cells harboring wild-type EGFR assessed as cell viability at 30 and 60 uM measured after 24 hrs; type: functional, cell-based
NCI-H1650 [45] = assay: Induction of apoptosis in human NCI-H1650 cells harboring EGFR-mutant assessed as cell death at 60 uM in presence of NAC; type: functional, cell-based

Chain of Epidermal growth factor receptor (Homo sapiens) (P00533 whole entry): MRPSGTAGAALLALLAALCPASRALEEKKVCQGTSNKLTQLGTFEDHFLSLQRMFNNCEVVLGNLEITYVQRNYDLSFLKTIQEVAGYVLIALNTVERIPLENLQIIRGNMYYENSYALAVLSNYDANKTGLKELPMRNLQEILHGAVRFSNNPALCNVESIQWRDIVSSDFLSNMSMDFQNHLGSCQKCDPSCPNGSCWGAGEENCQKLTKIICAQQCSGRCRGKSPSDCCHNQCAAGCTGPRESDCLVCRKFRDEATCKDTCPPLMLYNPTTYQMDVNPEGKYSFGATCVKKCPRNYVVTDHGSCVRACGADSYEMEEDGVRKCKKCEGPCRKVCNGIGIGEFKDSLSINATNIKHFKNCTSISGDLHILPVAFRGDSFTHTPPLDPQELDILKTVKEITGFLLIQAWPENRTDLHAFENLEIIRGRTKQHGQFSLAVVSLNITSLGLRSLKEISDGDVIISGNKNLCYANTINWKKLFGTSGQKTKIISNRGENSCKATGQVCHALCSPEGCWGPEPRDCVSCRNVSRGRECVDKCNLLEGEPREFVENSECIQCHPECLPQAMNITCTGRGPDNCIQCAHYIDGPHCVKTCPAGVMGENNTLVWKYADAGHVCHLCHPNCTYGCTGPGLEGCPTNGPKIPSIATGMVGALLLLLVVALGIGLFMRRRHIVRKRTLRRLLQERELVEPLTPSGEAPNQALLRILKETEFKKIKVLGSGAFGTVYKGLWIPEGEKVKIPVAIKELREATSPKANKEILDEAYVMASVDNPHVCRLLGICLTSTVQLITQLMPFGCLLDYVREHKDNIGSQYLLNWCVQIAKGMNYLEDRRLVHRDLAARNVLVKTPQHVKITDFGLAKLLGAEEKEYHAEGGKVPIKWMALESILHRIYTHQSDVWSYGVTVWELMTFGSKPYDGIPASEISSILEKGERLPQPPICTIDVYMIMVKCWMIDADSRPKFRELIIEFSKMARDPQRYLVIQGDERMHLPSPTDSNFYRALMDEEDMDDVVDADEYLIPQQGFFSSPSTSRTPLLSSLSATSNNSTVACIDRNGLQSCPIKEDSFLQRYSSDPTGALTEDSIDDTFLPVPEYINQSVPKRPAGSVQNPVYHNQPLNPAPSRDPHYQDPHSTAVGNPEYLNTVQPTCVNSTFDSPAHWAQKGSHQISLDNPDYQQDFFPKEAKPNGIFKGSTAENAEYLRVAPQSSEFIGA

O=C(O)c1cc(O)c(O)c(O)c1
inhibition (A549 [1]): inactive
Activity (A549 [2]): Active
inhibition (NCI-H1650 [3]): Active
Activity (NCI-H1975 [4]): Dose-dependent effect
Activity (NCI-H460 [5]): inactive
Activity (PC-9 [6]): Active
Activity (NCI-H1975 [7]): inactive
Activity (NCI-H1975 [8]): Dose-dependent effect
Activity (NCI-H1975 [9]): inactive
Activity (PC-9 [10]): Active
inhibition (NCI-H1650 [11]): Active
inhibition [12]: inactive
Activity (NCI-H460 [13]): inactive
Activity (A549 [14]): inactive
Activity (NCI-H1975 [15]): inactive
Activity (NCI-H1650 [16]): Dose-dependent effect
Activity (NCI-H1975 [17]): inactive
inhibition [18]: inactive
inhibition (NCI-H1975 [19]): Active
Activity (PC-9 [20]): Active
Activity (PC-9 [21]): Active
inhibition (NCI-H1650 [22]): Dose-dependent effect
Activity (NCI-H460 [23]): Active
Activity (NCI-H1975 [24]): Active
inhibition (NCI-H1975 [25]): Active
Activity (PC-9 [26]): Active
inhibition [27]: inactive
Activity (NCI-H1650 [28]): Active
inhibition (NCI-H1975 [29]): Dose-dependent effect
inhibition (NCI-H460 [30]): inactive
Activity (PC-9 [31]): Dose-dependent effect
inhibition [32]: inactive
Activity (A549 [33]): inactive
Activity (A549 [34]): inactive
Activity (PC-9 [35]): Active
Activity (PC-9 [36]): Active
Activity (PC-9 [37]): Dose-dependent effect
Activity (NCI-H1975 [38]): Active
Activity (NCI-H1975 [39]): Active
Activity (PC-9 [40]): Active
Activity (NCI-H1650 [41]): Dose-dependent effect
Activity (NCI-H1650 [42]): inactive
Activity (NCI-H1650 [43]): Active
Activity (NCI-H460 [44]): inactive
Activity (NCI-H1650 [45]): Active
